Reference: PMC6631223, “Chain-Branched Polyhydroxylated Octahydro-1H-Indoles as Potential Leads against Lysosomal Storage Diseases” (Pharmaceuticals, 2019)
Marks after values point to notes of the source that are not given here.

Key:
Assay type in all cases: biochemical
β-Glucosidase (almond) = experiment: Glycosidase inhibition: β-glucosidase (almond); details: 1000 μM
Excerpt: (§1) The enzymes α-glucosidase (from yeast, rice), β-glucosidase (from almonds, bovine liver), α-galactosidase (from coffee beans), β-galactosidase (from bovine liver), α-mannosidase (from jack beans), β-mannosidase (from snails), α-L-fucosidase (from bovine kidney), α-L-rhamnosidase (from Penicillium decumbens), β-glucuronidases (from Escherichia coli), α,α-trehalase (from porcine kidney), amyloglucosidase (from Aspergillus niger), p-nitrophenyl glycosides, and various disaccharides were purchased from Sigma-Aldrich Co. Brush border membranes were prepared from the rat small intestine according to the method of Kessler et al., and were assayed at pH 6.8 for rat intestinal maltase using maltose. For rat intestinal glucosidases and porcine kidney trehalase activities, the reaction mixture (0.2 mL) contained 25 mM substrate and the appropriate amount of enzyme, and the incubations were performed for 10 min at 37 °C. The reaction was stopped by heating at 100 °C for 3 min. After centrifugation (600 g; 10 min), 0.035 mL of the resulting reaction mixture were added to 2.1 mL of the Glucose CII-test Wako (Wako Pure Chemical Ind., Osaka, Japan). The absorbance at 505 nm was measured to determine the amount of the released D-glucose. Other glycosidase activities were determined using an appropriate p-nitrophenyl glycoside as substrate at the optimum pH of each enzyme. The reaction mixture (0.2 mL) contained 2 mM of the substrate and the appropriate amount of enzyme. The reaction was stopped by adding 0.4 mL of 400 mM Na2CO3. The released p-nitrophenol was measured spectrometrically at 400 nm.

β-Glucronidase (E.coli) = biological target: T1, β-Glucronidase (E.coli) (Escherichia coli, UniProt P05804); experiment: Glycosidase inhibition: β-glucuronidase (E. coli); details: β-glucuronidase, E. coli; 1000 μM
T1 construct: purchased Sigma-Aldrich Co
Excerpt: as §1

[1] = biological target: T2, α,α-Trehalase (porcine kidney) (Sus scrofa, UniProt I3LIR5); experiment: Glycosidase inhibition: α,α-trehalase (porcine kidney); details: read-out: inhibition % at 1000 μM
T2 construct: purchased Sigma-Aldrich Co; host or cells: porcine kidney
T2 sequence (I3LIR5 24-583): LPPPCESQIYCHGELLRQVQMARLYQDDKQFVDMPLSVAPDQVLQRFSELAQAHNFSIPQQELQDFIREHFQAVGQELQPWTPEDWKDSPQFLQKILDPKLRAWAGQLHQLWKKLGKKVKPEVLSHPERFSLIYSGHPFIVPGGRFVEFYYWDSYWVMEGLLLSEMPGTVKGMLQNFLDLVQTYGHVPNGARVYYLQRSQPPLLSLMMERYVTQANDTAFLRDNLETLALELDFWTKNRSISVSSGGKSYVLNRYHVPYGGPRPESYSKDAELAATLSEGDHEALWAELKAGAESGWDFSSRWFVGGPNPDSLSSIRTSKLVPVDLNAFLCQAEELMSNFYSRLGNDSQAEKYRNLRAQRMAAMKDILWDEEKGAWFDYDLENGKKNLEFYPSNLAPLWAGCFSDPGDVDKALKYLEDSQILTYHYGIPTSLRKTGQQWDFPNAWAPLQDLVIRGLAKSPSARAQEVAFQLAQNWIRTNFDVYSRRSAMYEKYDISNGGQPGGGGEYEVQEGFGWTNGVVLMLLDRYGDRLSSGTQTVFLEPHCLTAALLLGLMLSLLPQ
Excerpt: as §1, with “After centrifugation (600 g; 10 min), 0.035 mL of the resulting reaction mixture were added to 2.1 mL of the Glucose CII-test Wako (Wako Pure Chemical Ind., Osaka, Japan).” left out, “The reaction mixture (0.2 mL) contained 2 mM of the substrate and the appropriate amount of enzyme. The reaction was stopped by adding 0.4 mL of 400 mM Na2CO3.” left out

T1 sequence (P05804 whole entry): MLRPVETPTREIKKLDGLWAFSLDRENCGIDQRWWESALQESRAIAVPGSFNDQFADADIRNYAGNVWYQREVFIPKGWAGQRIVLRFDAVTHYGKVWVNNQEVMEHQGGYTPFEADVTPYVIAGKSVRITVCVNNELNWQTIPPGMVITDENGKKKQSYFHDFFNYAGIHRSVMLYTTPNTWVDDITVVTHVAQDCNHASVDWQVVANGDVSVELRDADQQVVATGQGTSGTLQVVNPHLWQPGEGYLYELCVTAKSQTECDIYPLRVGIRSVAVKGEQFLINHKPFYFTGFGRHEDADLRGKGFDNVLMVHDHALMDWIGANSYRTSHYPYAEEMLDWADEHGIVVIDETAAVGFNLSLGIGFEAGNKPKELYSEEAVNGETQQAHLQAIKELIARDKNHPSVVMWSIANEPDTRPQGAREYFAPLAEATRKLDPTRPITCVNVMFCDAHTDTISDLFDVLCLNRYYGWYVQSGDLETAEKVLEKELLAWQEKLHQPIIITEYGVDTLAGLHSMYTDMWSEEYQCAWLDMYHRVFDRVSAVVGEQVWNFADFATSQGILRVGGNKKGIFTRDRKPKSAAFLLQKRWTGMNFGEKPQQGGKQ

SMILES | inhibition % at 1000 μM (β-Glucosidase (almond)) | inhibition at 1000 µM (β-Glucronidase (E.coli)) | inhibition at 1000 µM [1]
CC[C@@H]1CN[C@H]2C[C@@H](O)[C@H](O)[C@@H](O)[C@H]12 [Compound 10, (3S,3aR,4S,5S,6R,7aS)-3-Ethyloctahydro-1H-indole-4,5,6-triol] | 12% ^a | 18.1% | 0%
CC[C@H]1CN[C@H]2C[C@@H](O)[C@H](O)[C@@H](O)[C@H]12 [Compound 13, (3R,3aR,4S,5S,6R,7aS)-3-ethyloctahydro-1H-indole-4,5,6-triol] | 5% ^a | 12.3% | 0%
